From article PMC8049054, “Systematic Assessment of Fragment Identification for Multitarget Drug Design” (Chemmedchem, 2021)
Marks after values point to notes of the source that are not given here.

target: T1, 5‐lipoxygenase (5‐LOX) (Homo sapiens, UniProt P09917); test: Differential scanning fluorimetry (DSF) screen on 5-LOX; type: binding; conditions: 500 μM fragment, mean of duplicates
T1 construct: made in house; host or cells: E. coli BL21 (DE3)
T1 sequence (P09917 1-674): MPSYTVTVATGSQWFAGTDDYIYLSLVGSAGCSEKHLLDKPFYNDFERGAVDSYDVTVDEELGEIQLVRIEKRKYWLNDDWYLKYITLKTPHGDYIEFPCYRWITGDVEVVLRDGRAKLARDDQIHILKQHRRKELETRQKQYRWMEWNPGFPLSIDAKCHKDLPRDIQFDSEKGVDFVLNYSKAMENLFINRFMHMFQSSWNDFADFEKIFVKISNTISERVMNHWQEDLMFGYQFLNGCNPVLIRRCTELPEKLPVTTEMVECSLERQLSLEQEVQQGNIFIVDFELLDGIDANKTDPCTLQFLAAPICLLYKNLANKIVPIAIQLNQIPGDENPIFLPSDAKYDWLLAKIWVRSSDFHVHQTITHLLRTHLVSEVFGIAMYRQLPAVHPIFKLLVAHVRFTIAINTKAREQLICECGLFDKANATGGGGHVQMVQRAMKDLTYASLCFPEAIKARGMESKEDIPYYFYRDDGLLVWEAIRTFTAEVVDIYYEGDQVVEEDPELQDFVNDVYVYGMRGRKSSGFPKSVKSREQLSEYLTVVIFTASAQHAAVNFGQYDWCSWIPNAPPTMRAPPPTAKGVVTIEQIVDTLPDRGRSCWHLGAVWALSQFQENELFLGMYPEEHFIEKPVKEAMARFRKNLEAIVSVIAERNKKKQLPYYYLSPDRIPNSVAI
Source text: (§1) For the primary screen of this fragment library, we employed differential scanning fluorimetry (DSF, also known as thermal shift). DSF is generally applicable to a large panel of protein targets and provides a robust, low‐cost screening technology for fragment‐based approaches. ^[20] All five proteins of our interest are soluble and were recombinantly expressed in Escherichia coli. We performed an initial fragment screen on all five targets by DSF. The use of a uniform screening method for all targets ensured consistent data and provided the opportunity to identify false positive hits which interfered with the screening technology. The conditions of the DSF assay were optimized for the desired screening and validated with reference compounds (Table S1 in the Supporting Information). Compounds causing a positive thermal shift ΔT m≥1.0 °C were considered as active.
(§2) DSF measurement of the PDFL (single concentration of 500 μM, duplicates, 96‐well format) on the five proteins retrieved 19 fragment hits on sEH, 28 on LTA4H, 12 on 5‐LOX, 16 on RXRα, and 14 on FXR, respectively. Melting point distributions of the screening library for all five targets are depicted in Figure 2. Amongst the hits, three compounds (Table S2) gave a positive signal on all five proteins likely qualifying them as pan assay interference compounds (PAINS). ^[21] Fragments binding to multiple targets (Scheme 1) were identified for seven out of ten target combinations (Figure 2, Table 1). Among them, fragments 4, 6, 7, and 9 match previously identified privileged scaffolds for fatty acid mimetics. ^[14] […] Active ligands containing N‐phenylbenzamide 6 and the N‐phenylbenzylamine 7 have been described for four of the protein targets. Furthermore, indole, which has been characterized as a privileged heterocycle for fatty acid mimetics, ^[14] is present in fragments 5 and 10. Dual 5‐LOX/RXR ligand 1 was present in 5‐LOX inhibitors, while dual FXR/LTA4H modulator 3 is found among known FXR ligands. Fragments 2 (sEH/5‐LOX) and 8 (LTA4H/RXR) are novel scaffolds not appearing in known ligands of any of the five targets.
(§3) Figure S3: SDS page of the purified proteins (proteins RXRα and FXR after TEV cleavage) using a 14% polyacrylamide gel, which was stained with coomassi. Precision Plus Protein™ Unstained Protein Standard s (Bio-Rad Laboratories, Inc. ) was used […]
(§4) All experiments were performed as duplicates using MicroAmp fast 96 -well plates. Each plate contained 80 different compound wells and 16 DMSO control wells. First 0.8 µl of a 25 mM Preswick Library Fragment dilution in DMSO or pure DMSO were placed in each of the well (final concentration 500 µM). Then 39.2 µl of the master mi x (containing protein, Triton x -100, SYPRO® Orange Protein Gel Stain and buffer that corresponds to the tested protein) were added.
(§5) Table S4: Final concentrations in DSF experiments: […]
5-LOX 500 µM compound, 3.5 µM protein, 0.87x DPBS, 0.87 mM EDTA, 0.01% (W/V) Triton X-100, 2.1% DMSO and 5x SYPRO® with a pH = 7.5 […]
(§6) The measurements were performed using a iCycler iQ™ Single -Color Real Time PCR device with a heat rate of 1 °C per min, an excitation wavelength of 490 nm and an emission wavelength of 570 nm. The first derivation calculated by MyiQ Op tical Software 1.0 was analyzed using Microsoft Office Excel 2013 by comparing the maxima. A shift of 1 °C (in case of 5 -LOX 0.9°C) or more compared to the DMSO control were assumed as potentially binding of the fragment.
(§7) (1 picture or pasted object on this page, not shown here)

SMILES | DSF/ΔT m 5‐LOX
c1ccc(N2CCNCC2)nc1 [Compound 1] | 0.9±0.0 °C
Cc1cc(=O)n(-c2ccc(C)c(C)c2)[nH]1 [Compound 2] | 1.1±0.0 °C
CCCCOc1cc(C(=O)OC)ccc1N [Compound 3] | −1.1±0.0 °C
Oc1ccc(Cc2ccccc2)cc1 [Compound 4] | −1.1±0.0 °C
Oc1ccc2cc[nH]c2c1 [Compound 5] | −0.1±0.0 °C
Cc1ccccc1C(=O)Nc1ccccc1 [Compound 6] | −1.4±2.1 °C
CCN(Cc1ccccc1)c1ccccc1 [Compound 7] | 0.9±0.0 °C
Clc1ccc2c(c1)Nc1ccccc1CC2 [Compound 8] | −0.1±0.0 °C
Oc1ccc(-c2ccc(F)cc2F)cc1 [Compound 9] | −1.1±0.0 °C
Fc1ccc(-c2c[nH]c3ccccc23)cc1 [Compound 10] | 0.9±0.0 °C

test system: T2, RXRα; test: Differential scanning fluorimetry (DSF) screen on RXRα; type: binding; conditions: 500 μM fragment, mean of duplicates
T2 construct: MBP (N, cleaved yes); poly-N-tag, His8-tag, TEV site (N, cleaved yes); made in house; host or cells: E. coli T7-express with pGro7 (GroEL/ES)
Source text: as §1, §2, §3, §4, §5, §6, §7

SMILES | DSF/ΔT m RXRα
c1ccc(N2CCNCC2)nc1 [Compound 1] | 1.1±0.0 °C
Cc1cc(=O)n(-c2ccc(C)c(C)c2)[nH]1 [Compound 2] | −9.5±24.0 °C
CCCCOc1cc(C(=O)OC)ccc1N [Compound 3] | −2.9±0.0 °C
Oc1ccc(Cc2ccccc2)cc1 [Compound 4] | −2.4±0.7 °C
Oc1ccc2cc[nH]c2c1 [Compound 5] | 0.8±0.7 °C
Cc1ccccc1C(=O)Nc1ccccc1 [Compound 6] | −1.0±0.7 °C
CCN(Cc1ccccc1)c1ccccc1 [Compound 7] | −0.4±0.7 °C
Oc1ccc(-c2ccc(F)cc2F)cc1 [Compound 9] | 2.3±0.0 °C
Fc1ccc(-c2c[nH]c3ccccc23)cc1 [Compound 10] | 1.9±0.0 °C

test system: T3, farnesoid X receptor (FXR); test: Differential scanning fluorimetry (DSF) screen on FXR; type: binding, human; conditions: 500 μM fragment, mean of duplicates
T3 construct: made in house; host or cells: E. coli BL21 (DE3)
Source text: For the primary screen of this fragment library, we employed differential scanning fluorimetry (DSF, also known as thermal shift). DSF is generally applicable to a large panel of protein targets and provides a robust, low‐cost screening technology for fragment‐based approaches. ^[20] […] We performed an initial fragment screen on all five targets by DSF.
as §3, §4
Table S4: Final concentrations in DSF experiments:
Protein Final concentrations under screening conditions
as §6, §7

SMILES | DSF/ΔT m FXR
c1ccc(N2CCNCC2)nc1 [Compound 1] | −0.1±0.0 °C
Cc1cc(=O)n(-c2ccc(C)c(C)c2)[nH]1 [Compound 2] | 0.3±0.0 °C
CCCCOc1cc(C(=O)OC)ccc1N [Compound 3] | 1.4±0.7 °C
Oc1ccc2cc[nH]c2c1 [Compound 5] | 1.2±0.0 °C
Cc1ccccc1C(=O)Nc1ccccc1 [Compound 6] | −1.2±0.7 °C
Oc1ccc(-c2ccc(F)cc2F)cc1 [Compound 9] | 21.7±3.5 ^[a] °C
Fc1ccc(-c2c[nH]c3ccccc23)cc1 [Compound 10] | −11.6±2.1 °C
